Assay results taken from US20140243302A1, “BRIDGED BICYCLIC COMPOUNDS FOR THE TREATMENT OF BACTERIAL INFECTIONS” (priority 2011, published 2014).
≈ marks a conversion by molar mass, not a printed value. Where a name gives a salt, the structure may show the parent alone.

Test system: Staphylococcus aureus Smith
Assay: MIC assay, modified agar dilution (CLSI), S. aureus Smith
Format: cell-based
Conditions: Staphylococcus aureus, agar dilution, 35° C., 16-20 hr; lowest concentration that completely inhibited growth; read-out: S_aureus_Smith_WT_MIC
Summary of the method: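 Agar dilution per CLSI on Mueller Hinton agar (plus 5% horse blood for S. pneumoniae and E. faecium), compound 128 to 0.001 μg/mL in two-fold steps. Spots of ~1×10^4 CFU incubated at 35 °C for 16-20 hr before MIC scoring.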

Row | MIC [µg/mL] | SMILES
1 | 0.125 (≈ 0.228 µM) | O=C1COc2ccc(CNC34CCC(CCc5c(F)cnc6ccc(N7CC[C@H](O)C7)nc56)(CC3)OC4)nc2N1 [Example 294, (S)-6-((1-(2-(3-Fluoro-6-(3-hydroxypyrrolidin-1-yl)-1,5-naphthyridin-4-yl)ethyl)-2-oxabicyclo[2.2.2]octan-4-ylamino)methyl)-2H-pyrido[3,2-b][1,4]oxazin-3(4H)-one]
2 | 0.016 | COc1cc(C)c2ncc(F)c(CCC34CCC(NCc5ccc6c(n5)NC(=O)CO6)(CC3)CO4)c2n1.Cl [Example 191, 6-((1-(2-(3-Fluoro-6-methoxy-8-methyl-1,5-naphthyridin-4-yl)ethyl)-2-oxabicyclo[2.2.2]octan-4-ylamino)methyl)-2H-pyrido[3,2-b][1,4]oxazin-3(4H)-one Hydrochloride]
3 | 0.031 (≈ 0.0626 µM) | COc1ccc2ncc(F)c(CC(O)C34CCC(NCc5ccc6c(c5)OCCO6)(CC3)CO4)c2n1 (stereo not drawn) [Example 172, 1-{4-[(2,3-Dihydro-1,4-benzodioxin-6-ylmethyl)amino]-2-oxabicyclo[2.2.2]oct-1-yl}-2-(3-fluoro-6-methoxy-1,5-naphthyridin-4-yl)ethanol]
4 | 0.063 | COc1ccc2ncc(F)c(CC(C)(O)C34CCC(NCc5ccc6c(n5)NC(=O)CO6)(CC3)CO4)c2n1.Cl (stereo not drawn) [Example 190, 6-((1-(1-(3-Fluoro-6-methoxy-1,5-naphthyridin-4-yl)-2-hydroxypropan-2-yl)-2-oxabicyclo[2.2.2]octan-4-ylamino)methyl)-2H-pyrido[3,2-b][1,4]oxazin-3(4H)-one Hydrochloride]
5 | 0.25 (≈ 0.506 µM) | COc1ccc2ncc(F)c(NCC34CCC(NCc5ccc6c(n5)NC(=O)CO6)(CC3)CO4)c2n1 [Example 136, 6-({1-[(3-Fluoro-6-methoxy-[1,5]naphthyridin-4-ylamino)-methyl]-2-oxa-bicyclo[2.2.2]oct-4-ylamino}-methyl)-4H-pyrido[3,2-b][1,4]oxazin-3-one]
6 | 0.063 (≈ 0.117 µM) | O=C1COc2ccc(CNC34CCC(CCn5c(=O)ccc6ncc(Br)cc65)(CC3)OC4)nc2N1 [Example 130, 6-((1-(2-(7-Bromo-2-oxo-1,5-naphthyridin-1(2H)-yl)ethyl)-2-oxabicyclo[2.2.2]octan-4-ylamino)methyl)-2H-pyrido[3,2-b][1,4]oxazin-3(4H)-one]
7 | 0.008 (≈ 0.0167 µM) | COc1ccc2ncc(F)c(CCC34CCC(NCc5ccc6c(c5)OCCO6)(CC3)CO4)c2n1 [Example 69, N-((2,3-Dihydrobenzo[b][1,4]dioxin-6-yl)methyl)-1-(2-(3-fluoro-6-methoxy-1,5-naphthyridin-4-yl)ethyl)-2-oxabicyclo[2.2.2]octan-4-amine]
8 | 2 (≈ 3.93 µM) | COc1ccc2ncc(F)c(CCC34CCC(NCc5cnc(N6CCOCC6)nc5)(CC3)CO4)c2n1 [Example 65, 1-(2-(3-Fluoro-6-methoxy-1,5-naphthyridin-4-yl)ethyl)-N-((2-morpholinopyrimidin-5-yl)methyl)-2-oxabicyclo[2.2.2]octan-4-amine]
9 | 2 (≈ 4.09 µM) | N#Cc1cnc2ccc(=O)n(CC(O)C34CCC(NCc5cc6c(cn5)OCCO6)(CC3)CO4)c2c1 (single isomer, unassigned; enantiomer a) [Example 159, 5-(2-(4-((2,3-Dihydro-[1,4]dioxino[2,3-c]pyridin-7-yl)methylamino)-2-oxabicyclo[2.2.2]octan-1-yl)-2-hydroxyethyl)-6-oxo-5,6-dihydro-1,5-naphthyridine-3-carbonitrile (Enantiomer A)]
10 | 0.125 (≈ 0.246 µM) | COc1ccc2ncc(F)c(CC(=O)C34CCC(NCc5ccc6c(n5)NC(=O)CO6)(CC3)CO4)c2n1 [Example 23, 6-((1-(2-(3-Fluoro-6-methoxy-1,5-naphthyridin-4-yl)acetyl)-2-oxabicyclo[2.2.2]octan-4-ylamino)methyl)-2H-pyrido[3,2-b][1,4]oxazin-3(4H)-one]
11 | 2 (≈ 4.18 µM) | Nc1ccc2ncc(F)c(CCC34CCC(NCc5ccc6c(n5)NC(=O)CO6)(CC3)CO4)c2n1 [Example 30, 6-((1-(2-(6-Amino-3-fluoro-1,5-naphthyridin-4-yl)ethyl)-2-oxabicyclo[2.2.2]octan-4-ylamino)methyl)-2H-pyrido[3,2-b][1,4]oxazin-3(4H)-one]
12 | 0.016 (≈ 0.0313 µM) | COc1ccc2ncc(F)c(CCC34CCC(NCc5nc6c(cc5F)OCC(=O)N6)(CC3)CO4)c2n1 [Example 98, 7-Fluoro-6-(((1-(2-(3-fluoro-6-methoxy-1,5-naphthyridin-4-yl)ethyl)-2-oxabicyclo[2.2.2]octan-4-yl)amino)methyl)-2H-pyrido[3,2-b][1,4]oxazin-3(4H)-one]
13 | 0.25 (≈ 0.508 µM) | COc1ccc2ncc(F)c(CCC34CCC(NCc5cnc(N6CCCC6)nc5)(CC3)CO4)c2n1 [Example 78, 1-(2-(3-Fluoro-6-methoxy-1,5-naphthyridin-4-yl)ethyl)-N-((2-(pyrrolidin-1-yl)pyrimidin-5-yl)methyl)-2-oxabicyclo[2.2.2]octan-4-amine]
14 | 0.016 (≈ 0.0323 µM) | COc1ccc2ncc(F)c(CCC34CCC(NCc5cc(-c6cccs6)on5)(CC3)CO4)c2n1 [Example 73, 1-(2-(3-Fluoro-6-methoxy-1,5-naphthyridin-4-yl)ethyl)-N-((5-(thiophen-2-yl)isoxazol-3-yl)methyl)-2-oxabicyclo[2.2.2]octan-4-amine]
15 | 0.016 (≈ 0.0325 µM) | COc1cnc2ncc(=O)n(CCC34CCC(NCc5ccc6c(n5)NC(=O)CO6)(CC3)CO4)c2c1 [Example 121, 6-(((1-(2-(7-Methoxy-2-oxopyrido[2,3-b]pyrazin-1(2H)-yl)ethyl)-2-oxabicyclo[2.2.2]octan-4-yl)amino)methyl)-2H-pyrido[3,2-b][1,4]oxazin-3(4H)-one]
16 | 16 (≈ 34.8 µM) | COc1ccc2ncc(F)c(CCC34CCC(NCc5nn(C)cc5Cl)(CC3)CO4)c2n1 [Example 93, N-((4-Chloro-1-methyl-1H-pyrazol-3-yl)methyl)-1-(2-(3-fluoro-6-methoxy-1,5-naphthyridin-4-yl)ethyl)-2-oxabicyclo[2.2.2]octan-4-amine]
17 | 0.031 | Cl.O=C1COc2ccc(CNC34CCC(CCc5c(F)cnc6ccc(OCCO)nc56)(CC3)OC4)nc2N1 [Example 34, 6-((1-(2-(3-Fluoro-6-(2-hydroxyethoxy)-1,5-naphthyridin-4-yl)ethyl)-2-oxabicyclo[2.2.2]octan-4-ylamino)methyl)-2H-pyrido[3,2-b][1,4]oxazin-3(4H)-one Hydrochloride]
18 | 0.031 (≈ 0.0573 µM) | CNC(=O)COc1ccc2ncc(F)c(CCC34CCC(NC/C=C/c5cc(F)ccc5F)(CC3)CO4)c2n1 [Example 192, (E)-2-(8-(2-(4-(3-(2,5-Difluorophenyl)allylamino)-2-oxabicyclo[2.2.2]octan-1-yl)ethyl)-7-fluoro-1,5-naphthyridin-2-yloxy)-N-methylacetamide]
19 | 2 (≈ 3.83 µM) | CON=C1COc2ccc(CNC34CCC(CCc5c(F)cnc6ccc(OC)nc56)(CC3)OC4)nc2N1 [Example 47, 6-((1-(2-(3-Fluoro-6-methoxy-1,5-naphthyridin-4-yl)ethyl)-2-oxabicyclo[2.2.2]octan-4-ylamino)methyl)-2H-pyrido[3,2-b][1,4]oxazin-3(4H)-one O-Methyl Oxime]
20 | 0.125 (≈ 0.255 µM) | COc1ccc2ncc(F)c(CCC34CCC(NCc5cn(-c6ncccn6)cn5)(CC3)CO4)c2n1 [Example 76, 1-(2-(3-Fluoro-6-methoxy-1,5-naphthyridin-4-yl)ethyl)-N-((1-(pyrimidin-2-yl)-1H-imidazol-4-yl)methyl)-2-oxabicyclo[2.2.2]octan-4-amine]
21 | 0.125 (≈ 0.253 µM) | COc1ccc2ncc(F)c(CCC34CCC(NCc5cnc6c(c5)OCCN6C)(CC3)CO4)c2n1 [Example 89, 1-(2-(3-Fluoro-6-methoxy-1,5-naphthyridin-4-yl)ethyl)-N-((4-methyl-3,4-dihydro-2H-pyrido[3,2-b][1,4]oxazin-7-yl)methyl)-2-oxabicyclo[2.2.2]octan-4-amine]
22 | 4 (≈ 8.29 µM) | COc1ccc2ncc(F)c(CCC34CCC(NCc5cc(OC)c(OC)cn5)(CC3)CO4)c2n1 [Example 62, N-((4,5-Dimethoxypyridin-2-yl)methyl)-1-(2-(3-fluoro-6-methoxy-1,5-naphthyridin-4-yl)ethyl)-2-oxabicyclo[2.2.2]octan-4-amine]
23 | 4 (≈ 7.91 µM) | COc1ccc2ncc(F)c(CCC34CCC(NCc5csc(-c6ccccn6)n5)(CC3)CO4)c2n1 [Example 75, 1-(2-(3-Fluoro-6-methoxy-1,5-naphthyridin-4-yl)ethyl)-N-((2-(pyridin-2-yl)thiazol-4-yl)methyl)-2-oxabicyclo[2.2.2]octan-4-amine]
24 | 0.125 (≈ 0.25 µM) | COc1ccc2ncc(F)c(CCC34CCC(NCc5cc(Cl)c6c(c5)OCO6)(CC3)CO4)c2n1 [Example 72, N-((7-Chlorobenzo[d][1,3]dioxol-5-yl)methyl)-1-(2-(3-fluoro-6-methoxy-1,5-naphthyridin-4-yl)ethyl)-2-oxabicyclo[2.2.2]octan-4-amine]

Row | SMILES | MIC [µg/mL]
25 | COc1ccc2ncc(F)c(CC(N)C34CCC(NCc5ccc6c(n5)NC(=O)CO6)(CC3)CO4)c2n1 (single isomer, unassigned) [Example 21a, 6-((1-(1-Amino-2-(3-fluoro-6-methoxy-1,5-naphthyridin-4-yl)ethyl)-2-oxabicyclo[2.2.2]octan-4-ylamino)methyl)-2H-pyrido[3,2-b][1,4]oxazin-3(4H)-one Dihydrochloride] | 0.25
26 | N[C@@H]1CO[C@@H]1COc1ccc2ncc(F)c(CCC34CCC(NCc5ccc6c(n5)NC(=O)CO6)(CC3)CO4)c2n1 [Example 184, 6-((1-(2-(6-(((2S,3R)-3-Aminooxetan-2-yl)methoxy)-3-fluoro-1,5-naphthyridin-4-yl)ethyl)-2-oxabicyclo[2.2.2]octan-4-ylamino)methyl)-2H-pyrido[3,2-b][1,4]oxazin-3(4H)-one] | 0.25 (≈ 0.443 µM)

Same assay, conditions: agar dilution, 35° C., 16-20 hr; lowest concentration that completely inhibited growth

Row | SMILES | S_aureus_Smith_WT_MIC [µg/mL]
27 | COc1ccc2ncc(Cl)c(C(O)CC34CCC(NCc5ccc6c(n5)NC(=O)CO6)(CC3)CC4)c2n1 (single isomer, unassigned) [Example 13a, 6-((4-(2-(3-Chloro-6-methoxy-1,5-naphthyridin-4-yl)-2-hydroxyethyl)bicyclo[2.2.2]octan-1-ylamino)methyl)-2H-pyrido[3,2-b][1,4]oxazin-3(4H)-one] | 0.0310
